As usually defined, the MIC is the lowest concentration that inhibits growth of the organism.

Where only a bound is given, the exact number is not on record here.

Holding throughout (type): cell-based
Test [1] relates to Staph Russell. Nature of the test: standard MIC test, compound alone and in combination with ampicillin.
Test [2] has as its system Proteus C889. The description is as above.
In test [3] the test system is 7 cephalosporinase - producing E. coli strains. Nature of the test: standard MIC test, cephaloridine with synergist. The conditions noted are these: Escherichia coli, read-out: Geometric Mean (MIC). From the text:
A composition of sodium 6β-methanesulphonyloxypenicillanate and cephaloridine against 7 cephalosporinase - producing E. coli strains results in the following MIC's in a standard test.

Where [4] appears, read: substance alone (the 1st table).
The mark [5] stands for this setting: substance alone (the 2nd table).

For the molecule `CC1(C)S[C@@H]2[C@H](NC(=O)[C@H](N)c3ccccc3)C(=O)N2[C@H]1C(=O)O` [Ampicillin], the MIC in test [1] (setting [4]) was 62.5 mg/L; in test [1] (setting [5]) it was 250 mg/L; in test [2] (setting [4]), 1000 mg/L; in test [2] (setting [5]), > 2000 mg/L.

With `CC1(C)S[C@@H]2[C@H](OS(=O)(=O)c3ccc(Br)cc3)C(=O)N2[C@H]1C(=O)O` [Calcium 6β-p-bromobenzenzsulphonyloxypenicillanate], the results for the MIC in test [1] (setting [5]) and in test [2] (setting [5]) were 16 mg/L and > 500 mg/L, respectively.

For the molecule `O=C(Cc1cccs1)N[C@@H]1C(=O)N2C(C(=O)[O-])=C(C[n+]3ccccc3)CS[C@H]12` [Cephaloridine], the MIC in test [3] stood at 152 mg/L.

With `CC1(C)S[C@@H]2[C@H](OS(C)(=O)=O)C(=O)N2[C@H]1C(=O)O` [Sodium 6β-methanesulphonyloxypenicillanate], the MIC in test [1] (setting [4]) is 4 mg/L; in test [2] (setting [4]), 62.5 mg/L.

Source of the values: patent EP0023093A1, “Penicillanic acid derivatives, their preparation and their pharmaceutical compositions with a penicillin or cephalosporin” (BEECHAM GROUP PLC, priority 1979, dated 1981).
